Calls of active or inactive are those of the source. The calls are words filed in the database; no cut-off is given here.
What was measured:
[1] = tested on: Lissorhoptrus oryzophilus; test: Insecticidal activity against Lissorhoptrus oryzophilus in rice plants assessed as leaf consumption rate per day at 10 ug treated as seed measured after 72 hr of feeding (reference value: 8.3 +/- 0.7 mm'2 /day); assay type: functional
[2] = tested on: Lissorhoptrus oryzophilus; test: Insecticidal activity against Lissorhoptrus oryzophilus in rice plants assessed as mortality at 10 ug treated as seed measured after 72 hr of feeding (reference value: 15 +/- 2.9%); assay type: functional
[3] = tested on: Lissorhoptrus oryzophilus; test: Insecticidal activity against Lissorhoptrus oryzophilus in rice plants assessed as mortality at 100 ug treated as seed measured after 72 hr of feeding (reference value: 15 +/- 2.9%); assay type: functional
[4] = tested on: Lissorhoptrus oryzophilus; test: Insecticidal activity against Lissorhoptrus oryzophilus in rice plants assessed as leaf consumption rate per day at 25 ug treated as seed measured after 72 hr of feeding (reference value: 8.3 +/- 0.7 mm'2 /day); assay type: functional
[5] = tested on: Lissorhoptrus oryzophilus; test: Insecticidal activity against Lissorhoptrus oryzophilus in rice plants assessed as mortality at 50 ug treated as seed measured after 72 hr of feeding (reference value: 15 +/- 2.9%); assay type: functional
[6] = tested on: Lissorhoptrus oryzophilus; test: Insecticidal activity against Lissorhoptrus oryzophilus in rice plants assessed as leaf consumption rate per day at 50 ug treated as seed measured after 72 hr of feeding (reference value: 8.3 +/- 0.7 mm'2 /day); assay type: functional
[7] = tested on: Lissorhoptrus oryzophilus; test: Insecticidal activity against Lissorhoptrus oryzophilus in rice plants assessed as leaf consumption rate per day at 100 ug treated as seed measured after 72 hr of feeding (reference value: 8.3 +/- 0.7 mm'2 /day); assay type: functional
[8] = tested on: Lissorhoptrus oryzophilus; test: Insecticidal activity against Lissorhoptrus oryzophilus in rice plants assessed as mortality at 25 ug treated as seed measured after 72 hr of feeding (reference value: 15 +/- 2.9%); assay type: functional
[9] = tested on: Lissorhoptrus oryzophilus; test: Insecticidal activity against Lissorhoptrus oryzophilus in rice plants assessed as mortality at 7 ug treated as seed measured after 72 hr of feeding (reference value: 3.8 +/- 1.8%); assay type: functional
[10] = tested on: Lissorhoptrus oryzophilus; test: Insecticidal activity against Lissorhoptrus oryzophilus in rice plants assessed as mortality at 35 ug treated as seed measured after 72 hr of feeding (reference value: 3.8 +/- 1.8%); assay type: functional
[11] = tested on: Lissorhoptrus oryzophilus; test: Insecticidal activity against Lissorhoptrus oryzophilus in rice plants assessed as leaf consumption rate per day at 21 ug treated as seed measured after 72 hr of feeding (reference value: 8.3 +/- 0.5 mm'2 /day); assay type: functional
[12] = tested on: Lissorhoptrus oryzophilus; test: Insecticidal activity against Lissorhoptrus oryzophilus in rice plants assessed as mortality at 14 ug treated as seed measured after 72 hr of feeding (reference value: 3.8 +/- 1.8%); assay type: functional
[13] = tested on: Lissorhoptrus oryzophilus; test: Insecticidal activity against Lissorhoptrus oryzophilus in rice plants assessed as leaf consumption rate per day at 14 ug treated as seed measured after 72 hr of feeding (reference value: 8.3 +/- 0.5 mm'2 /day); assay type: functional
[14] = tested on: Lissorhoptrus oryzophilus; test: Insecticidal activity against Lissorhoptrus oryzophilus in rice plants assessed as mortality at 28 ug treated as seed measured after 72 hr of feeding (reference value: 3.8 +/- 1.8%); assay type: functional
[15] = tested on: Lissorhoptrus oryzophilus; test: Insecticidal activity against Lissorhoptrus oryzophilus in five to six-leaf stage rice plants assessed as mortality treated as seed measured after 72 hr of feeding; assay type: functional, organism-based
[16] = tested on: Lissorhoptrus oryzophilus; test: Insecticidal activity against Lissorhoptrus oryzophilus in rice plants assessed as leaf consumption rate per day at 7 ug treated as seed measured after 72 hr of feeding (reference value: 8.3 +/- 0.5 mm'2 /day); assay type: functional
[17] = tested on: Lissorhoptrus oryzophilus; test: Insecticidal activity against Lissorhoptrus oryzophilus in rice plants assessed as leaf consumption rate per day at 28 ug treated as seed measured after 72 hr of feeding (reference value: 8.3 +/- 0.5 mm'2 /day); assay type: functional
[18] = tested on: Lissorhoptrus oryzophilus; test: Insecticidal activity against Lissorhoptrus oryzophilus in two to three-leaf stage rice plants assessed as mortality treated as seed measured after 72 hr of feeding; assay type: functional
[19] = tested on: Lissorhoptrus oryzophilus; test: Insecticidal activity against Lissorhoptrus oryzophilus in rice plants assessed as leaf consumption rate per day at 35 ug treated as seed measured after 72 hr of feeding (reference value: 8.3 +/- 0.5 mm'2 /day); assay type: functional
[20] = tested on: Lissorhoptrus oryzophilus; test: Insecticidal activity against Lissorhoptrus oryzophilus in rice plants assessed as mortality at 21 ug treated as seed measured after 72 hr of feeding (reference value: 3.8 +/- 1.8%); assay type: functional
[21] = tested on: Lissorhoptrus oryzophilus; test: Insecticidal activity against Lissorhoptrus oryzophilus in three to four-leaf stage rice plants assessed as mortality treated as seed measured after 72 hr of feeding; assay type: functional

`CNC(=O)c1cc(Cl)cc(C)c1NC(=O)c1cc(Br)nn1-c1ncccc1Cl` [CHLORANTRANILIPROLE] was tested, and the Activity [1] was 8.3 mm2, the mortality [2] was 10% and the mortality [3] was 16.3%. The Activity [4] was 6.7 mm2, the mortality [5] was 12.5% and the Activity [6] was 7.3 mm2. It also gave an Activity [7] of 9.4 mm2 and a mortality [8] of 20%.
With `CN1COCN(Cc2cnc(Cl)s2)/C1=N\[N+](=O)[O-]` [THIAMETHOXAM] the mortality [9] was 22.5%, the mortality [10] was 45% and the Activity [11] was 5.5 mm2. The mortality [12] was 21.3%, the Activity [13] was 6.6 mm2 and the mortality [14] was 42.5%. For the same molecule, the Activity [15] was “Active”, the Activity [16] was 6.9 mm2 and the Activity [17] was 5.2 mm2. The LC50 [18] was 447 pg, the Activity [19] was 6.4 mm2 and the mortality [20] was 28.8%. The LC50 [21] was 142 pg.
